Reference: PubChem BioAssay (NCI)
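1) Cells in 96-well plates. 2) Compound, 48 h, 5 concentrations. 3) Linear interpolation between surrounding doses. 4) Unreached endpoint = highest concentration. The concentration for full growth arrest is given as TGI.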 Where a SMILES comes first, the peptide text is derived from it. The star is where a group is joined. Cbz = O=C(OCc1ccccc1)*

What was measured:
Assay in all cases: DTP human tumour cell line panel, 48 h
A498 renal = system: A498 renal
ACHN renal = system: ACHN renal
CAKI-1 renal = system: CAKI-1 renal
HL-60(TB) leukemia = system: HL-60(TB) leukemia
IGROV1 ovarian = system: IGROV1 ovarian
LOX IMVI melanoma = system: LOX IMVI melanoma
M14 melanoma = system: M14 melanoma
MDA-MB-231 breast = system: MDA-MB-231 breast
MDA-N = system: MDA-N
NCI-H23 lung = system: NCI-H23 lung
NCI-H460 lung = system: NCI-H460 lung
NCI/ADR-RES ovarian = system: NCI/ADR-RES ovarian
RPMI-8226 leukemia = system: RPMI-8226 leukemia
SF-295 CNS = system: SF-295 CNS
SK-OV-3 ovarian = system: SK-OV-3 ovarian
SNB-75 CNS = system: SNB-75 CNS
U251 CNS = system: U251 CNS
UO-31 renal = system: UO-31 renal

SMILES | TGI (A498 renal) [µM] | TGI (ACHN renal) [µM] | TGI (CAKI-1 renal) [µM] | TGI (HL-60(TB) leukemia) [µM] | TGI (IGROV1 ovarian) [µM] | TGI (LOX IMVI melanoma) [µM] | TGI (M14 melanoma) [µM] | TGI (MDA-MB-231 breast) [µM] | TGI (MDA-N) [µM] | TGI (NCI-H23 lung) [µM] | TGI (NCI-H460 lung) [µM] | TGI (NCI/ADR-RES ovarian) [µM] | TGI (RPMI-8226 leukemia) [µM] | TGI (SF-295 CNS) [µM] | TGI (SK-OV-3 ovarian) [µM] | TGI (SNB-75 CNS) [µM] | TGI (U251 CNS) [µM] | TGI (UO-31 renal) [µM]
CC/C(Cl)=N\OC(=O)Nc1ccc(C#N)cc1 | 30.3 | 27.4 | 9.32 | 6.2 | 30.6 | 15.9 | 24.8 | 29.1 | 30 | 32 | 36.2 | 18.3 | 8.66 | 33 | 22.3 | 28.2 | 30.8 | 31
CCOC(=O)C(C)NC(=O)C(C)NC(=O)C(C)NC(=O)C(C)NC(=O)C(C)NC(=O)C(C)NC(=O)C(C)NC(=O)OCc1ccccc1 (centres undefined) (Cbz-AAAAAAA-OEt; configuration not given here) | > 100 | > 100 | > 100 | > 100 | > 100 | > 100 | > 100 | > 100 | > 100 | > 100 | > 100 | > 100 | > 100 | > 100 | > 100 | > 100 | > 100 | > 100
CCOC(=O)c1nc2cc(C(F)(F)F)ccc2nc1Nc1ccc(Cl)c(Cl)c1 | > 100 | > 100 | > 100 | > 100 | > 100 | > 100 | > 100 | > 100 | > 100 | > 100 | > 100 | > 100 | > 100 | > 100 | > 100 | > 100 | > 100 | > 100
